Data from paper PMC12413947, “Caffeine Acts as an Agonist of Siglec-6, Inhibits MRGPRX2-Triggered Mast Cell Degranulation and Anaphylactoid Reactions” (Mediators of Inflammation, 2025).

Molecular target: T1, Siglec-6 (Homo sapiens, UniProt O43699)
T1 construct: gene SIGLEC6; captured on CM5 chip
Assay: surface plasmon resonance (Biacore T200)
Type: binding
Text: surface plasmon resonance (Biacore T200) on Siglec-6 | The binding affinity between caffeine and Siglec-6 protein is with a calculated KD of […]

T1 sequence (O43699 27-347 limits assumed): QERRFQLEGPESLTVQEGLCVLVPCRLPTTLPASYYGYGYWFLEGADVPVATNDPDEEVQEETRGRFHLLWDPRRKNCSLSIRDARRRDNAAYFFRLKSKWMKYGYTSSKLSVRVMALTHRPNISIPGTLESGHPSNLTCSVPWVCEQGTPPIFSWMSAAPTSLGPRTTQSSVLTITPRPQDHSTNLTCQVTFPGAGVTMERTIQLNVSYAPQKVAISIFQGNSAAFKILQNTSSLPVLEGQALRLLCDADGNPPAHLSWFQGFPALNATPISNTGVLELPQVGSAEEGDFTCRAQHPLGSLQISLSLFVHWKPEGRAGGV

## Cn1c(=O)c2c(ncn2C)n(C)c1=O [caffeine]
  Kd: 176 nM
